Reference: patent US8815882B2, “Pyrazole aminopyrimidine derivatives as LRRK2 modulators” (Genentech, Inc., priority 2010, dated 2014)
Like-named read-outs stand apart in the source and are kept apart here.

Target: T1, LRRK2 (Homo sapiens, UniProt Q5S007, G2019S)
T1 construct: purchased Invitrogen PV4882 (lot 567054A)
Test: In Vitro LRRK2 Assay (LabChip 3000, fluorescently-labeled peptide substrate, ATP)
Type: biochemical
Experimental: This assay was used to determine a compound's potency in inhibiting activity of LRRK2 by determining, Kiapp, IC50, or percent inhibition values. In a polypropylene plate, LRRK2, fluorescently-labeled peptide substrate, ATP and test compound were incubated together. Using a LabChip 3000 (Caliper Life Sciences), after the reaction the substrate was separated by capillary electrophoresis into two populations: phosphorylated and unphosphorylated. The relative amounts of each were quantitated by fluorescence intensity. LRRK2 Ki was determined according to the equation: Y=V0*(1−(x+Ki*(1+S/Km)+Et)/(2*Et)−(((x+Ki*(1+S/Km)+Et)^2−(4*Et*x))^0.5)/(2*Et))). Ki values in Table 4 and elsewhere herein are shown in μM.
Assay conditions and materials used were as follows:
Compound Plate Preparation:
For serial dilutions, 34.6 μl DMSO was added to columns 3-24.
Total and Blank Preparation:
In Complete Reaction Buffer, substrate was diluted to 4 μM. Equal volumes of Complete Reaction Buffer and 4 μM substrate were combined to obtain the blank. Equal volumes of Complete Reaction Buffer and 4 μM substrate were combined and to the combined solution was added 2× final LRRK2 concentration.
To a 50 μl polypropylene plate, 5 μl/well buffer/substrate was added by hand to Blank wells. A Biomek FX was used to start the kinase reaction (“PLK SAR 23 ATP”). The following were added to the appropriate wells:
5 μl/well compound/ATP in Assay Plate;
5 μl/well kinase/substrate in Assay Plate;
The plate was incubated for 2 hours in the dark. Biomek FX was used to stop the kinase reaction (“PLK Stop”), and 10 μl/well Stop solution was added to the Assay Plate. Results were read on the LabChip 3000.
The LabChip 3000 was run using the job “LRRK2 IC50” with the following job settings: […]

[1] = read-out: LRRK2 Ki (KI), Table 7
[2] = Table 10, LRRK2 Ki (micromolar), read-out: LRRK2 Ki (KI)
[3] = read-out: LRRK2 Ki (KI), Table 8
[4] = Table 9, LRRK2 Ki (micromolar), read-out: LRRK2 Ki (KI)

T1 sequence (Q5S007 whole entry G2019S): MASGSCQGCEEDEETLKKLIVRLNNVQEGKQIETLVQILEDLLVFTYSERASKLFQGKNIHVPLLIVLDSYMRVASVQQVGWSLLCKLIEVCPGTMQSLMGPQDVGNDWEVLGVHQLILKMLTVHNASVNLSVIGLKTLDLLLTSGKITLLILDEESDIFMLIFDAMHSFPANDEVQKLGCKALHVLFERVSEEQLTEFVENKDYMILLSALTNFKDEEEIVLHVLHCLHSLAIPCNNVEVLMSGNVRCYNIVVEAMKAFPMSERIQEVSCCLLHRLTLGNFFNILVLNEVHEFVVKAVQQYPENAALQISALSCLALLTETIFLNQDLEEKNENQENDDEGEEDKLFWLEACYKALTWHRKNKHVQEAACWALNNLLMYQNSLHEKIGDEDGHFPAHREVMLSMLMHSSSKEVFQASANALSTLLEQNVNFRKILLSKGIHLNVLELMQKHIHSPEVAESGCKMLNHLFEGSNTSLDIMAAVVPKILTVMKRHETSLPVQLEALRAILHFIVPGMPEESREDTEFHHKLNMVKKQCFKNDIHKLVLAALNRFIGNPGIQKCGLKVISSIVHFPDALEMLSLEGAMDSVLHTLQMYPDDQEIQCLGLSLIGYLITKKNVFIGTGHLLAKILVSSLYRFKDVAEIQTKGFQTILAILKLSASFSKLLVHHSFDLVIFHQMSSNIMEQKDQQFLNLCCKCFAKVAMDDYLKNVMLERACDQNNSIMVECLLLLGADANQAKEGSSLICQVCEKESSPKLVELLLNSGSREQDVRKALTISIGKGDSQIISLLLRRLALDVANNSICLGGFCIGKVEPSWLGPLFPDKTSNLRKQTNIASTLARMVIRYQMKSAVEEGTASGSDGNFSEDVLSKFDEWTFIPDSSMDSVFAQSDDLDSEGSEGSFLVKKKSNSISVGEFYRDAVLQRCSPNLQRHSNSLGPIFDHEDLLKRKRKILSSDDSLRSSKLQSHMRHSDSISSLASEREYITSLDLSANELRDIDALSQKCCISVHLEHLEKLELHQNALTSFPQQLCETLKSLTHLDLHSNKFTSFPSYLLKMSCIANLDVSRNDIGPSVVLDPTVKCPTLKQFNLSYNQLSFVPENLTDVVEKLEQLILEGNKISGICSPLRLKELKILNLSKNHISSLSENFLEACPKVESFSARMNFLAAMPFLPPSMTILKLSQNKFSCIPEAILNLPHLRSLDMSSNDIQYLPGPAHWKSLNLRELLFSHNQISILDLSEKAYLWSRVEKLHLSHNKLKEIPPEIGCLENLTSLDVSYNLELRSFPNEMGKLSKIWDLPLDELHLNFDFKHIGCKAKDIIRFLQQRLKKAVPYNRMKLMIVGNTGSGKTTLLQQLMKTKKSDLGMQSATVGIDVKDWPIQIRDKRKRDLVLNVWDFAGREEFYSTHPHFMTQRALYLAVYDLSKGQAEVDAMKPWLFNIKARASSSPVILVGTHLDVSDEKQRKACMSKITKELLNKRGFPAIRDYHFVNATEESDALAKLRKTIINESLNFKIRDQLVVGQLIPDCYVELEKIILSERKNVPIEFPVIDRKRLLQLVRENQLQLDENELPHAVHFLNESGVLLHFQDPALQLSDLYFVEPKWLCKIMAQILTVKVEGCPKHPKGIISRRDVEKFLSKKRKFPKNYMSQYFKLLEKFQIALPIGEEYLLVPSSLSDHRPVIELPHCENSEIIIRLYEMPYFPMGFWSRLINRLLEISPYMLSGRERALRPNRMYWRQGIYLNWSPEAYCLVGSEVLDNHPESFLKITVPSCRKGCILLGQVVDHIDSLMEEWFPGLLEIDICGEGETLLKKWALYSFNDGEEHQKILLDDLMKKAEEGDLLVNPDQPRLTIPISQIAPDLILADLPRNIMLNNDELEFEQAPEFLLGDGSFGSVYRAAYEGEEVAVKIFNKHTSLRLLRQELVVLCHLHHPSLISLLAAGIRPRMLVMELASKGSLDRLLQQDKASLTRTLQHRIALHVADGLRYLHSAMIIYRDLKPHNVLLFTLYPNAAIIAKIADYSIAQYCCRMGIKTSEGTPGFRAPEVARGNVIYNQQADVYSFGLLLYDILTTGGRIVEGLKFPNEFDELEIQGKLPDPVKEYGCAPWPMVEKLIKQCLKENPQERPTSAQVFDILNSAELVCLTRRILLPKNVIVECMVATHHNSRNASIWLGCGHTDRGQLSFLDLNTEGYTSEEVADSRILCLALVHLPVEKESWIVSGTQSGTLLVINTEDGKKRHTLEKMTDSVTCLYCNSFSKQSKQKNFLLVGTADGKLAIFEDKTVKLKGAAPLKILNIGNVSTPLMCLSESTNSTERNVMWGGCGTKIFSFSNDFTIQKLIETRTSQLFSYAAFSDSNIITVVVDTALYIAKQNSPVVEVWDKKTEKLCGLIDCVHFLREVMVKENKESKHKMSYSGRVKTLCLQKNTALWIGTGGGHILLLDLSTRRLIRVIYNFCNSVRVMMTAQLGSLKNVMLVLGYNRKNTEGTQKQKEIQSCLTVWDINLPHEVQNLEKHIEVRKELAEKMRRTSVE

Compound `COc1nc(Nc2cn(S(=O)(=O)C3CC3)nc2C)ncc1Cl` [Example 71, 5-chloro-N-(1-(cyclopropyl-sulfonyl)-3-methyl-1H-pyrazol-4-yl)-4-methoxy-pyrimidin-2-amine] has a Ki [1] of 20 nM.
`CCNC(=O)C(C)(C)n1cc(Nc2ncc(C(F)(F)F)c(NC)n2)c(C)n1` [Example 440, N-Ethyl-2-[3-methyl-4-(4-methylamino-5-trifluoromethyl-pyrimidin-2-ylamino)-pyrazol-1-yl]-isobutyramide] showed a Ki [2] of 9.5 nM.
`COc1nc(Nc2cn(C(C)(C)C#N)nc2C)ncc1Cl` [Example 73, 2-(4-(5-chloro-4-methoxy-pyrimidin-2-ylamino)-3-methyl-1H-pyrazol-1-yl)-2-methylpropane-nitrile] gave a Ki [1] of 14 nM.
In the case of `CCNc1nc(Nc2cn(C3COC3)nc2C)ncc1Br` [Example 104, 5-bromo-N4-ethyl-N2-(3-methyl-1-(oxetan-3-yl)-1H-pyrazol-4-yl)pyrimidine-2,4-diamine], the Ki [3] is reported as 1.4 nM.
`CNc1nc(Nc2cnn(C)c2NC)ncc1C(F)(F)F` [Example 194, N4-methyl-N2-(1-methyl-5-(methylamino)-1H-pyrazol-4-yl)-5-(trifluoromethyl) pyrimidine-2,4-diamine] gave a Ki [3] of 52.2 nM.
`CNc1nc(Nc2cn(C3CCCC3O)nc2C)ncc1C(F)(F)F` (stereo not shown) [Example 335, 2-[3-Methyl-4-(4-methylamino-5-trifluoromethyl-pyrimidin-2-ylamino)-pyrazol-1-yl]-cyclopentanol] gave a Ki [3] of 3.3 nM.
`CNc1nc(Nc2cnn(C(C)(C)C(=O)NCC3CC3)c2C)ncc1C(F)(F)F` [Example 426, N-(cyclopropylmethyl)-2-methyl-2-(5-methyl-4-(4-(methylamino)-5-(trifluoromethyl)pyrimidin-2-ylamino)-1H-pyrazol-1-yl)propanamide] gave a Ki [2] of 9 nM.
For `Cc1c(Nc2ncc(Cl)c(NCC(F)F)n2)cnn1C` [Example 172, 5-chloro-N4-(2,2-difluoroethyl)-N2-(1,5-dimethyl-1H-pyrazol-4-yl)pyrimidine-2,4-diamine], the Ki [3] was 7 nM.
In the case of `COc1nc(Nc2cc(C3CC3)nn2C)ncc1Cl` [Example 39, 5-Chloro-N-(3-cyclopropyl-1-methyl-1H-pyrazol-5-yl)-4-methoxy-pyrimidin-2-amine], the Ki [1] is reported as 59 nM.
Work on `CNc1nc(Nc2cnn(-c3ccnc(C)c3)c2C)ncc1C(F)(F)F` [Example 142, N4-methyl-N2-(5-methyl-1-(2-methylpyridin-4-yl)-1H-pyrazol-4-yl)-5-(trifluoromethyl) pyrimidine-2,4-diamine] yielded a Ki [3] of 0.3 nM.
Work on `CNc1nc(Nc2cnn(C3COC3)c2C)ncc1C#N` [Example 388, 4-Methylamino-2-(5-methyl-1-oxetan-3-yl-1H-pyrazol-4-ylamino)-pyrimidine-5-carbonitrile] yielded a Ki [4] of 32.2 nM.
Compound `CCNc1nc(Nc2cnn(C)c2C)ncc1Br` [Example 257, 5-Bromo-N2-(1,5-dimethyl-1H-pyrazol-4-yl)-N4-ethyl-pyrimidine-2,4-diamine] has a Ki [3] of 1.5 nM.
In the case of `Cc1c(Nc2ncc(C(F)(F)F)c(N3CCCC3)n2)cnn1C` [Example 13, N-(1,5-dimethyl-1H-pyrazol-4-yl)-4-(pyrrolidin-1-yl)-5-(trifluoromethyl) pyrimidin-2-amine], the Ki [1] is reported as 12 nM.
Work on `CCNc1nc(Nc2cnn(C3CCN(CC4OCCO4)CC3)c2C)ncc1C(F)(F)F` [Example 87, N^2-[1-(1-[1,3]Dioxolan-2-ylmethyl-piperidin-4-yl)-5-methyl-1H-pyrazol-4-yl]-N^4-ethyl-5-trifluoromethyl-pyrimidine-2,4-diamine] yielded a Ki [1] of 0.8 nM.
Work on `CNc1nc(Nc2cnn(S(C)(=O)=O)c2C)ncc1C(F)(F)F` [Example 195, N4-methyl-N2-(5-methyl-1-(methylsulfonyl)-1H-pyrazol-4-yl)-5-(trifluoromethyl) pyrimidine-2,4-diamine] yielded a Ki [3] of 10 nM.
`CNc1nc(Nc2[nH]ncc2C)ncc1C(F)(F)F` [Example 206, N4-methyl-N2-(4-methyl-1H-pyrazol-5-yl)-5-(trifluoromethyl) pyrimidine-2,4-diamine] gave a Ki [3] of 232 nM.
For `CCNc1nc(Nc2ccn(C)n2)ncc1C(F)(F)F` [Example 61, N^4-ethyl-N^2-(1-methyl-1H-pyrazol-3-yl)-5-(trifluoromethyl) pyrimidine-2,4-diamine], the Ki [1] was 4.6 nM.
For `CCNc1nc(Nc2cnn(CC3(C)COC3)c2C)ncc1C(F)(F)F` [Example 169, N4-ethyl-N2-(5-methyl-1-((3-methyloxetan-3-yl)methyl)-1H-pyrazol-4-yl)-5-(trifluoromethyl) pyrimidine-2,4-diamine], the Ki [3] was 2.2 nM.
`CNc1nc(Nc2cn([C@@H]3CCN(C4COC4)C3)nc2C)ncc1C(F)(F)F` [Example 204, (R)-N4-methyl-N2-(3-methyl-1-(1-(oxetan-3-yl)pyrrolidin-3-yl)-1H-pyrazol-4-yl)-5-(trifluoromethyl) pyrimidine-2,4-diamine] showed a Ki [3] of 29 nM.
Work on `CNC(=O)Cn1cc(Nc2ncc(C(F)(F)F)c(NC)n2)c(C)n1` [Example 397, N-methyl-2-(3-methyl-4-(4-(methylamino)-5-(trifluoromethyl)pyrimidin-2-ylamino)-1H-pyrazol-1-yl)acetamide] yielded a Ki [2] of 9.5 nM.
In the case of `CNc1nc(Nc2cn(-c3ccc(S(C)(=O)=O)cc3)nc2C)ncc1C(F)(F)F` [Example 124, N4-methyl-N2-(3-methyl-1-(4-(methylsulfonyl)phenyl)-1H-pyrazol-4-yl)-5-(trifluoromethyl) pyrimidine-2,4-diamine], the Ki [3] is reported as 0.3 nM.
`CCCn1ncc(Nc2ncc(C#N)c(NC)n2)c1C` [Example 366, 2-(5-methyl-1-propyl-1H-pyrazol-4-ylamino)-4-(methylamino) pyrimidine-5-carbonitrile] was tested, and the Ki [4] was 5.4 nM.
Compound `Cc1c(Nc2ncc(Cl)c(OC3CCOCC3)n2)cnn1C` [Example 9, 5-Chloro-N-(1,5-dimethyl-1H-pyrazol-4-yl)-4-(tetrahydro-2H-pyran-4-yloxy)pyrimidin-2-amine] has a Ki [1] of 39 nM.
Compound `COc1nc(Nc2cnn(-c3ccc(C(=O)N(C)C)cc3)c2C)ncc1Cl` [Example 82, 4-[4-(5-Chloro-4-methoxy-pyrimidin-2-ylamino)-5-methyl-pyrazol-1-yl]-N,N-dimethyl-benzamide] has a Ki [1] of 630 nM.
Work on `CNc1nc(Nc2cn(-c3ccc(S(=O)(=O)C4CC4)cc3)nc2C)ncc1C(F)(F)F` [Example 161, N2-(1-(4-(cyclopropyl-sulfonyl)phenyl)-3-methyl-1H-pyrazol-4-yl)-N4-methyl-5-(trifluoromethyl) pyrimidine-2,4-diamine] yielded a Ki [3] of 0.3 nM.
Work on `CCNc1nc(Nc2cn(-c3ccc(S(=O)(=O)C4CC4)cc3)nc2C)ncc1C(F)(F)F` [Example 264, N2-[1-(4-Cyclopropane-sulfonyl-phenyl)-3-methyl-1H-pyrazol-4-yl]-N4-ethyl-5-trifluoromethyl-pyrimidine-2,4-diamine] yielded a Ki [3] of 3.2 nM.
`COc1nc(Nc2cn(-c3ccc(C(=O)N(C)C)cc3)nc2C)ncc1Cl` [Example 81, 4-[4-(5-Chloro-4-methoxy-pyrimidin-2-ylamino)-3-methyl-pyrazol-1-yl]-N,N-dimethyl-benzamide] showed a Ki [1] of 2.2 nM.
`CCNc1nc(Nc2cn(C3CCN(CC4OCCO4)C3)nc2C)ncc1C(F)(F)F` (stereo not shown) [Example 322, N2-[1-(1-[1,3]Dioxolan-2-ylmethyl-pyrrolidin-3-yl)-3-methyl-1H-pyrazol-4-yl]-N4-ethyl-5-trifluoromethyl-pyrimidine-2,4-diamine] showed a Ki [3] of 4.9 nM.
Compound `CNc1nc(Nc2cn(C(C)(C)CN3CCOCC3)nc2C)ncc1C(F)(F)F` [Example 299, N2-[1-(1,1-Dimethyl-2-morpholin-4-yl-ethyl)-3-methyl-1H-pyrazol-4-yl]-N4-methyl-5-trifluoromethyl-pyrimidine-2,4-diamine] has a Ki [3] of 22.8 nM.
For `CCNc1nc(Nc2cn(C3CCNCC3F)nc2C)ncc1C(F)(F)F` (stereo not shown) [Example 333, N4-Ethyl-N2-[1-(3-fluoro-piperidin-4-yl)-3-methyl-1H-pyrazol-4-yl]-5-trifluoromethyl-pyrimidine-2,4-diamine], the Ki [3] was 0.7 nM.
Compound `CNc1nc(Nc2cn([C@@H](C)C#N)nc2C)ncc1C(F)(F)F` [Example 416, (S)-2-(3-methyl-4-(4-(methylamino)-5-(trifluoromethyl)pyrimidin-2-ylamino)-1H-pyrazol-1-yl)propanenitrile] has a Ki [2] of 1.9 nM.
`CNc1nc(Nc2cnn(CC(O)C(C)C)c2C)ncc1C(F)(F)F` (stereo not shown) [Example 320, 3-Methyl-1-[5-methyl-4-(4-methylamino-5-trifluoromethyl-pyrimidin-2-ylamino)-pyrazol-1-yl]-butan-2-ol] was tested, and the Ki [3] was 3 nM.
In the case of `CCNc1nc(Nc2cn(CC(C)(C)O)nc2C(C)C)ncc1C(F)(F)F` [Example 221, 1-(4-(4-(ethylamino)-5-(trifluoromethyl)pyrimidin-2-ylamino)-3-isopropyl-1H-pyrazol-l-yl)-2-methylpropan-2-ol], the Ki [3] is reported as 6.1 nM.
With `CNc1nc(Nc2cnn(C)c2C)ncc1C#N` [Example 349, 2-(1,5-Dimethyl-1H-pyrazol-4-ylamino)-4-(methylamino)pyrimidine-5-carbonitrile] the Ki (read-out: LRRK2 Ki given in the example) was 25 nM.
